The results in this text go back to patent US20250134857A1, “Fast Acting Joint Health Composition and Use Thereof” (Lonza Greenwood LLC, priority 2022, published 2025).

Holding throughout (assay type): cell-based, Human
One assay deals with MMP-13. Description: MMP-13 expression by real-time PCR in IL-1β-treated SW1353 cells. Particulars: for MMP-13 Percent Change over Control: 1 h pretreatment, then IL-1β (5 ng/ml) 24 hr. The protocol: (§1) Human SW1353 chondrosarcoma cell line (ATCC, HTB-94) were grown in monolayer at 37° C., in a humidified atmosphere under 5% CO2, with Dulbecco's Modified Eagle Medium (DMEM) supplemented with 10% (v/v) fetal bovine serum (FBS) and 100 U/ml penicillin-streptomycin solution until 80% confluency with 0.1% v/v DMSO as a vehicle control.
(§2) The SW1353 cells were starved for 24 h with serum-free DMEM medium (containing 100 U/ml penicillin-streptomycin), and then pretreated with various concentrations of andrographolide and tamarind seed extract at three concentrations (in triplicate) for one hour, followed by addition of IL-1β (5 ng/ml) in culture media for an additional 24 hr. In addition, sulforaphane was tested as a positive control in the same manner as andrographolide and TSE, which is illustrated in FIG. 1E.
(§3) Real-time PCR was performed with the use of the SYBR Green PCR Master Mix (Applied Biosystems) according to the manufacturer's protocol and amplified on the ABI Prism 7000 sequence detection system. The results are illustrated in FIGS. 1A-1E, and in Table 1.
For orientation: Real-time PCR tracks product formation cycle by cycle.

A further assay has as its system IL-6. Description: IL-6 expression by real-time PCR in IL-1β-treated SW1353 cells. Particulars: for IL-6 Percent Change over Control: 1 h pretreatment, then IL-1β (5 ng/ml) 24 hr. As for the experimental part:
as §1, §2, §3

A further assay deals with IL-1A. As to the kind of experiment: IL-1A expression by real-time PCR in IL-1β-treated SW1353 cells. Particulars: for IL-1A Percent Change over Control: 1 h pretreatment, then IL-1β (5 ng/ml) 24 hr. The protocol: as §1, §2, §3
In the next assay the test system is COX-2. Description: COX-2 expression by real-time PCR in IL-1β-treated SW1353 cells. Particulars: 1 h pretreatment, then IL-1β (5 ng/ml) 24 hr. As for the experimental part: as §1, §2
Real-time PCR was performed with the use of the SYBR Green PCR Master Mix (Applied Biosystems) according to the manufacturer's protocol and amplified on the ABI Prism 7000 sequence detection system.

For the next assay, the system named is SOX-9. As to the kind of experiment: SOX-9 expression by real-time PCR in IL-1β-treated SW1353 cells. Particulars: 1 h pretreatment, then IL-1β (5 ng/ml) 24 hr. As for the experimental part: as §1, §2, §3
[1] abbreviates: summary of Example 1, SW1353 cells, IL-1β.

Take `C=C1CC[C@@H]2[C@](C)(CO)[C@H](O)CC[C@@]2(C)[C@@H]1C/C=C1/C(=O)OC[C@H]1O` [Andrographolide, andrographolide]: the figures for the “MMP-13 Percent Change over Control” value in the assay with MMP-13 (Dose 2.78), in the assay with MMP-13 (Dose 8.33) and with MMP-13 (Dose 25) were 93.0%, 87.2% and 108.2%, respectively. The “MMP-13, result in words” value in the assay with MMP-13 (setting [1]) is “significant reduction”. Also, the “IL-6 Percent Change over Control” value in the assay on IL-6 (Dose 2.78) came out at 46.7%; with IL-6 (Dose 8.33), 62.8%; with IL-6 (Dose 25), 101.3%. Besides, the “IL-6, result in words” value with IL-6 (setting [1]) is “significant reduction”. The “IL-1A Percent Change over Control” value in the assay with IL-1A (Dose 2.78) was 28.3%; in the assay with IL-1A (Dose 8.33), 46.1%; in the assay with IL-1A (Dose 25) it was 73.1%. Moreover, the “IL-1, result in words” value in the assay on IL-1A (setting [1]) is given as “significant reduction”. The figures for the “COX-2 Percent Change over Control” value in the assay with COX-2 (Dose 2.78), in the assay on COX-2 (Dose 8.33) and with COX-2 (Dose 25) were 27.1%, −22.8% and 59.8%, respectively. Further, the entries for the “SOX-9 Percent Change over Control” value in the assay on SOX-9 (Dose 2.78), in the assay on SOX-9 (Dose 8.33) and in the assay on SOX-9 (Dose 25) were 14.2%, 10.8% and 40.5%, respectively.
